Measurements: article PMC11420776 (RSC Advances, 2024)

Tests used:
COLO-205 (colon cancer) = assay: NCI 60-cell one-dose antiproliferative screen; assay type: cell-based, human; conditions: one dose 10 μM
[1] = tested on: NCI-H322M (NSC lung cancer); assay: NCI 60-cell one-dose antiproliferative screen; assay type: cell-based, human; conditions: one dose 10 μM
[2] = tested on: NCI-H23 (NSC lung cancer); assay: NCI 60-cell one-dose antiproliferative screen; assay type: cell-based, human; conditions: one dose 10 μM
UACC-257 (melanoma) = assay: NCI 60-cell one-dose antiproliferative screen; assay type: cell-based, human; conditions: one dose 10 μM
SK-OV-3 (ovarian cancer) = assay: NCI 60-cell one-dose antiproliferative screen; assay type: cell-based, human; conditions: one dose 10 μM
RXF 393 (renal cancer) = assay: NCI 60-cell one-dose antiproliferative screen; assay type: cell-based, human; conditions: one dose 10 μM
HCT-15 (colon cancer) = assay: NCI 60-cell one-dose antiproliferative screen; assay type: cell-based, human; conditions: one dose 10 μM
HOP-92 (NSC lung cancer) = assay: NCI 60-cell one-dose antiproliferative screen; assay type: cell-based, human; conditions: one dose 10 μM
KM12 (colon cancer) = assay: NCI 60-cell one-dose antiproliferative screen; assay type: cell-based, human; conditions: one dose 10 μM
SK-MEL-2 (melanoma) = assay: NCI 60-cell one-dose antiproliferative screen; assay type: cell-based, human; conditions: one dose 10 μM
SNB-75 (CNS cancer) = assay: NCI 60-cell one-dose antiproliferative screen; assay type: cell-based, human; conditions: one dose 10 μM
[3] = tested on: NCI-H522 (NSC lung cancer); assay: NCI 60-cell one-dose antiproliferative screen; assay type: cell-based, human; conditions: one dose 10 μM
SF-268 (CNS cancer) = assay: NCI 60-cell one-dose antiproliferative screen; assay type: cell-based, human; conditions: one dose 10 μM
A498 (renal cancer) = assay: NCI 60-cell one-dose antiproliferative screen; assay type: cell-based, human; conditions: one dose 10 μM
OVCAR-5 (ovarian cancer) = assay: NCI 60-cell one-dose antiproliferative screen; assay type: cell-based, human; conditions: one dose 10 μM
CAKI-1 (renal cancer) = assay: NCI 60-cell one-dose antiproliferative screen; assay type: cell-based, human; conditions: one dose 10 μM
[4] = tested on: 60 human tumor cell lines; assay: NCI 60-cell one-dose antiproliferative screen, whole panel; assay type: cell-based; conditions: Homo sapiens, 60 cell, read-out: Mean inhibition (mean GI%)
U251 (CNS cancer) = assay: NCI 60-cell one-dose antiproliferative screen; assay type: cell-based, human; conditions: one dose 10 μM
SF-539 (CNS cancer) = assay: NCI 60-cell one-dose antiproliferative screen; assay type: cell-based, human; conditions: one dose 10 μM
[5] = tested on: MDA-MB-231/ATCC (breast cancer); assay: NCI 60-cell one-dose antiproliferative screen; assay type: cell-based, human; conditions: one dose 10 μM
786-0 (renal cancer) = assay: NCI 60-cell one-dose antiproliferative screen; assay type: cell-based, human; conditions: one dose 10 μM
EKVX (NSC lung cancer) = assay: NCI 60-cell one-dose antiproliferative screen; assay type: cell-based, human; conditions: one dose 10 μM
[6] = tested on: A549/ATCC (NSC lung cancer); assay: NCI 60-cell one-dose antiproliferative screen; assay type: cell-based, human; conditions: one dose 10 μM
SW-620 (colon cancer) = assay: NCI 60-cell one-dose antiproliferative screen; assay type: cell-based, human; conditions: one dose 10 μM
UO-31 (renal cancer) = assay: NCI 60-cell one-dose antiproliferative screen; assay type: cell-based, human; conditions: one dose 10 μM
MCF7 (breast cancer) = assay: NCI 60-cell one-dose antiproliferative screen; assay type: cell-based, human; conditions: one dose 10 μM
ACHN (renal cancer) = assay: NCI 60-cell one-dose antiproliferative screen; assay type: cell-based, human; conditions: one dose 10 μM
IGROV1 (ovarian cancer) = assay: NCI 60-cell one-dose antiproliferative screen; assay type: cell-based, human; conditions: one dose 10 μM
HCT-116 (colon cancer) = assay: NCI 60-cell one-dose antiproliferative screen; assay type: cell-based, human; conditions: one dose 10 μM
M14 (melanoma) = assay: NCI 60-cell one-dose antiproliferative screen; assay type: cell-based, human; conditions: one dose 10 μM
[7] = tested on: NCI/ADR-RES (ovarian cancer); assay: NCI 60-cell one-dose antiproliferative screen; assay type: cell-based, human; conditions: one dose 10 μM
PC-3 (prostate cancer) = assay: NCI 60-cell one-dose antiproliferative screen; assay type: cell-based, human; conditions: one dose 10 μM
OVCAR-3 (ovarian cancer) = assay: NCI 60-cell one-dose antiproliferative screen; assay type: cell-based, human; conditions: one dose 10 μM
HS 578T (breast cancer) = assay: NCI 60-cell one-dose antiproliferative screen; assay type: cell-based, human; conditions: one dose 10 μM
UACC-62 (melanoma) = assay: NCI 60-cell one-dose antiproliferative screen; assay type: cell-based, human; conditions: one dose 10 μM
[8] = tested on: MDA-MB-468 (breast cancer); assay: NCI 60-cell one-dose antiproliferative screen; assay type: cell-based, human; conditions: one dose 10 μM
RPMI-8226 (leukemia) = assay: NCI 60-cell one-dose antiproliferative screen; assay type: cell-based, human; conditions: one dose 10 μM
[9] = tested on: NCI-H460 (NSC lung cancer); assay: NCI 60-cell one-dose antiproliferative screen; assay type: cell-based, human; conditions: one dose 10 μM
OVCAR-4 (ovarian cancer) = assay: NCI 60-cell one-dose antiproliferative screen; assay type: cell-based, human; conditions: one dose 10 μM
DU-145 (prostate cancer) = assay: NCI 60-cell one-dose antiproliferative screen; assay type: cell-based, human; conditions: one dose 10 μM
LOX IMIV (melanoma) = assay: NCI 60-cell one-dose antiproliferative screen; assay type: cell-based, human; conditions: one dose 10 μM
HOP-62 (NSC lung cancer) = assay: NCI 60-cell one-dose antiproliferative screen; assay type: cell-based, human; conditions: one dose 10 μM
HT29 (colon cancer) = assay: NCI 60-cell one-dose antiproliferative screen; assay type: cell-based, human; conditions: one dose 10 μM
HCC-2998 (colon cancer) = assay: NCI 60-cell one-dose antiproliferative screen; assay type: cell-based, human; conditions: one dose 10 μM
OVCAR-8 (ovarian cancer) = assay: NCI 60-cell one-dose antiproliferative screen; assay type: cell-based, human; conditions: one dose 10 μM
MALME-3M (melanoma) = assay: NCI 60-cell one-dose antiproliferative screen; assay type: cell-based, human; conditions: one dose 10 μM
SNB-19 (CNS cancer) = assay: NCI 60-cell one-dose antiproliferative screen; assay type: cell-based, human; conditions: one dose 10 μM
SN12C (renal cancer) = assay: NCI 60-cell one-dose antiproliferative screen; assay type: cell-based, human; conditions: one dose 10 μM
MDA-MB-435 (melanoma) = assay: NCI 60-cell one-dose antiproliferative screen; assay type: cell-based, human; conditions: one dose 10 μM
T-47D (breast cancer) = assay: NCI 60-cell one-dose antiproliferative screen; assay type: cell-based, human; conditions: one dose 10 μM
TK-10 (renal cancer) = assay: NCI 60-cell one-dose antiproliferative screen; assay type: cell-based, human; conditions: one dose 10 μM
CCRF-CEM (leukemia) = assay: NCI 60-cell one-dose antiproliferative screen; assay type: cell-based, human; conditions: one dose 10 μM
SK-MEL-28 (melanoma) = assay: NCI 60-cell one-dose antiproliferative screen; assay type: cell-based, human; conditions: one dose 10 μM
SF-295 (CNS cancer) = assay: NCI 60-cell one-dose antiproliferative screen; assay type: cell-based, human; conditions: one dose 10 μM
[10] = tested on: NCI-H226 (NSC lung cancer); assay: NCI 60-cell one-dose antiproliferative screen; assay type: cell-based, human; conditions: one dose 10 μM

In the case of O=[N+]([O-])c1ccc(C=NNc2ccc3nnc(-c4ccccc4)n3n2)cc1 [Compound 4b, 6-(2-(4-Nitrobenzylidene)hydrazinyl)-3-phenyl-[1,2,4]triazolo[4,3-b]pyridazine], the GI% (COLO-205 (colon cancer)) was “— (— GI% is below 15%)”, the GI% [1] was “— (— GI% is below 15%)” and the GI% [2] was “— (— GI% is below 15%)”. For the same compound, the GI% (UACC-257 (melanoma)) was “— (— GI% is below 15%)”, the GI% (SK-OV-3 (ovarian cancer)) was “— (— GI% is below 15%)” and the GI% (RXF 393 (renal cancer)) was “— (— GI% is below 15%)”. The GI% (HCT-15 (colon cancer)) was “— (— GI% is below 15%)”, the GI% (HOP-92 (NSC lung cancer)) was “— (— GI% is below 15%)” and the GI% (KM12 (colon cancer)) was “— (— GI% is below 15%)”. The GI% (SK-MEL-2 (melanoma)) was “— (— GI% is below 15%)”, the GI% (SNB-75 (CNS cancer)) was “— (— GI% is below 15%)” and the GI% [3] was “— (— GI% is below 15%)”. For the same compound, the GI% (SF-268 (CNS cancer)) was “— (— GI% is below 15%)”, the GI% (A498 (renal cancer)) was “— (— GI% is below 15%)” and the GI% (OVCAR-5 (ovarian cancer)) was “— (— GI% is below 15%)”. The GI% (CAKI-1 (renal cancer)) was “— (— GI% is below 15%)”, the inhibition at 10 µM [4] was less than 0% and the GI% (U251 (CNS cancer)) was “— (— GI% is below 15%)”. For the same compound, the GI% (SF-539 (CNS cancer)) was “— (— GI% is below 15%)”, the GI% [5] was “— (— GI% is below 15%)” and the GI% (786-0 (renal cancer)) was “— (— GI% is below 15%)”. For the same compound, the GI% (EKVX (NSC lung cancer)) was “— (— GI% is below 15%)”, the GI% [6] was “— (— GI% is below 15%)” and the GI% (SW-620 (colon cancer)) was “— (— GI% is below 15%)”. For the same compound, the GI% (UO-31 (renal cancer)) was “— (— GI% is below 15%)”, the GI% (MCF7 (breast cancer)) was “— (— GI% is below 15%)” and the GI% (ACHN (renal cancer)) was “— (— GI% is below 15%)”. The GI% (IGROV1 (ovarian cancer)) was “— (— GI% is below 15%)”, the GI% (HCT-116 (colon cancer)) was “— (— GI% is below 15%)” and the GI% (M14 (melanoma)) was “— (— GI% is below 15%)”. For the same compound, the GI% [7] was “— (— GI% is below 15%)”, the GI% (PC-3 (prostate cancer)) was “— (— GI% is below 15%)” and the GI% (OVCAR-3 (ovarian cancer)) was “— (— GI% is below 15%)”. For the same compound, the GI% (HS 578T (breast cancer)) was “— (— GI% is below 15%)”, the GI% (UACC-62 (melanoma)) was “— (— GI% is below 15%)” and the GI% [8] was “— (— GI% is below 15%)”. For the same compound, the GI% (RPMI-8226 (leukemia)) was “— (— GI% is below 15%)”, the GI% [9] was “— (— GI% is below 15%)” and the GI% (OVCAR-4 (ovarian cancer)) was “— (— GI% is below 15%)”. For the same compound, the GI% (DU-145 (prostate cancer)) was “— (— GI% is below 15%)”, the GI% (LOX IMIV (melanoma)) was “— (— GI% is below 15%)” and the GI% (HOP-62 (NSC lung cancer)) was “— (— GI% is below 15%)”. For the same compound, the GI% (HT29 (colon cancer)) was “— (— GI% is below 15%)”, the GI% (HCC-2998 (colon cancer)) was “— (— GI% is below 15%)” and the GI% (OVCAR-8 (ovarian cancer)) was “— (— GI% is below 15%)”. The GI% (MALME-3M (melanoma)) was “— (— GI% is below 15%)”, the GI% (SNB-19 (CNS cancer)) was “— (— GI% is below 15%)” and the GI% (SN12C (renal cancer)) was “— (— GI% is below 15%)”. The GI% (MDA-MB-435 (melanoma)) was “— (— GI% is below 15%)”, the GI% (T-47D (breast cancer)) was “— (— GI% is below 15%)” and the GI% (TK-10 (renal cancer)) was “— (— GI% is below 15%)”. For the same compound, the GI% (CCRF-CEM (leukemia)) was “— (— GI% is below 15%)”, the GI% (SK-MEL-28 (melanoma)) was “— (— GI% is below 15%)” and the GI% (SF-295 (CNS cancer)) was “— (— GI% is below 15%)”. The GI% [10] was “— (— GI% is below 15%)”.
